# Source: PubChem BioAssay AID330 (DTP/NCI, 2004)
# Values joined by “and” are separate entries in the source; they are usually repeats but may differ in a detail not shown here. Identical values can stand only once. Inconclusive results and toxic doses are left out.
# Tested on: P388 leukemia ip, CD2F1 mice, survival T/C
# Experiment: NCI In Vivo Anticancer Drug Screen. Data for tumor model P388 Leukemia (intraperitoneal) in CD2F1 (CDF1) mice
# Details: endpoint: median survival time, higher = longer survival
# Summary of the method: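 Mice carrying the transplanted tumor received test compound or vehicle. Survival was recorded in each group, and the value is the treated-group measurement divided by that of the vehicle-treated control group.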
# [1] = dose: 100.0 mg/kg/injection, schedule: Q01DX001 (ip), vehicle: Klucel (hydroxypropylcellulose) (HPC)
# [2] = dose: 200.0 mg/kg/injection, schedule: Q01DX001 (ip), vehicle: Klucel (hydroxypropylcellulose) (HPC)
# [3] = dose: 400.0 mg/kg/injection, schedule: Q01DX001 (ip), vehicle: Klucel (hydroxypropylcellulose) (HPC)
# [4] = dose: 50.0 mg/kg/injection, schedule: Q01DX005 (ip), vehicle: Klucel (hydroxypropylcellulose) (HPC)
# [5] = dose: 100.0 mg/kg/injection, schedule: Q01DX005 (ip), vehicle: Klucel (hydroxypropylcellulose) (HPC)
# [6] = dose: 200.0 mg/kg/injection, schedule: Q01DX005 (ip), vehicle: Klucel (hydroxypropylcellulose) (HPC)
# [7] = dose: 50.0 mg/kg/injection, schedule: Q01DX009 (ip), vehicle: saline with Tween-80
# [8] = dose: 100.0 mg/kg/injection, schedule: Q01DX009 (ip), vehicle: saline with Tween-80
# [9] = dose: 200.0 mg/kg/injection, schedule: Q01DX009 (ip), vehicle: saline with Tween-80
# [10] = dose: 60.0 mg/kg/injection, schedule: Q01DX005 (ip), vehicle: Klucel (hydroxypropylcellulose) (HPC)
# [11] = dose: 120.0 mg/kg/injection, schedule: Q01DX005 (ip), vehicle: Klucel (hydroxypropylcellulose) (HPC)
# [12] = dose: 50.0 mg/kg/injection, schedule: Q01DX005 (ip), vehicle: saline with Tween-80
# [13] = dose: 100.0 mg/kg/injection, schedule: Q01DX005 (ip), vehicle: saline with Tween-80
compound,measurement,setting,value
CCOC(=O)/C=C(\I)C(=O)OCC,T/C,"dose: 6.25 mg/kg/injection, schedule: Q01DX009 (ip), vehicle: Klucel (hydroxypropylcellulose) (HPC)",109 % of control
same,T/C,"dose: 12.5 mg/kg/injection, schedule: Q01DX009 (ip), vehicle: Klucel (hydroxypropylcellulose) (HPC)",100 % of control
same,T/C,"dose: 25.0 mg/kg/injection, schedule: Q01DX009 (ip), vehicle: Klucel (hydroxypropylcellulose) (HPC)",98 % of control
C[N+](C)([O-])CCCNc1c2ccccc2nc2cccc([N+](=O)[O-])c12,T/C,"dose: 0.79 mg/kg/injection, schedule: Q01DX009 (ip), vehicle: saline",108 % of control
same,T/C,"dose: 1.56 mg/kg/injection, schedule: Q01DX009 (ip), vehicle: saline",110 % of control
same,T/C,"dose: 3.12 mg/kg/injection, schedule: Q01DX009 (ip), vehicle: saline",117 % of control and 118 % of control
COC(=O)NC(=Nc1cccc(C(=O)c2ccc3nc(NC(=O)OC)[nH]c3c2)c1)NC(=O)OC,T/C,"dose: 120.0 mg/kg/injection, schedule: Q01DX005 (ip), vehicle: saline with Tween-80",90 % of control
CCn1nnnc1-c1ccccc1,T/C,[1],91 % of control
same,T/C,[2],88 % of control
same,T/C,[3],91 % of control
O=C(CC(c1ccccc1Cl)C(C(=O)O)c1ccccc1)c1ccccc1 (stereo not drawn),T/C,[4],100 % of control
same,T/C,[5],91 % of control
same,T/C,[6],99 % of control
CCOC(=O)N(O)c1ccc(C(N)=O)cc1,T/C,[7],100 % of control
same,T/C,[8],97 % of control
same,T/C,[9],108 % of control
O=C(O)/C=C/c1ccc([N+](=O)[O-])cc1,T/C,[8],100 % of control
same,T/C,[9],105 % of control
C=C1COC(=O)C12CC1CCCC(C)C1(C)C2 (stereo not drawn),T/C,"dose: 4.0 mg/kg/injection, schedule: Q01DX009 (ip), vehicle: Klucel (hydroxypropylcellulose) (HPC)",93 % of control
same,T/C,"dose: 8.0 mg/kg/injection, schedule: Q01DX009 (ip), vehicle: Klucel (hydroxypropylcellulose) (HPC)",96 % of control
same,T/C,"dose: 16.0 mg/kg/injection, schedule: Q01DX009 (ip), vehicle: Klucel (hydroxypropylcellulose) (HPC)",94 % of control
same,T/C,"dose: 32.0 mg/kg/injection, schedule: Q01DX009 (ip), vehicle: Klucel (hydroxypropylcellulose) (HPC)",102 % of control
C=C1CCN(c2ccc(C)cc2)C1=O,T/C,"dose: 4.0 mg/kg/injection, schedule: Q01DX009 (ip), vehicle: saline + alcohol",100 % of control
same,T/C,"dose: 8.0 mg/kg/injection, schedule: Q01DX009 (ip), vehicle: saline + alcohol",100 % of control
same,T/C,"dose: 16.0 mg/kg/injection, schedule: Q01DX009 (ip), vehicle: saline + alcohol",96 % of control
same,T/C,"dose: 64.0 mg/kg/injection, schedule: Q01DX009 (ip), vehicle: saline + alcohol",94 % of control
CC(C)CC(NC(=O)C(C)N)C(=O)NC(C)C(=O)NC1C(O)OC(CO)C(O)C1O (stereo not drawn),T/C,"dose: 100.0 mg/kg/injection, schedule: Q01DX001 (ip), vehicle: saline with Tween-80",100 % of control
same,T/C,"dose: 200.0 mg/kg/injection, schedule: Q01DX001 (ip), vehicle: saline with Tween-80",97 % of control
same,T/C,"dose: 400.0 mg/kg/injection, schedule: Q01DX001 (ip), vehicle: saline with Tween-80",91 % of control
Cc1cc(Cl)ccc1O/C(=C/C(=O)O)C(=O)O,T/C,[10],100 % of control and 98 % of control
same,T/C,[11],100 % of control and 95 % of control
same,T/C,"dose: 240.0 mg/kg/injection, schedule: Q01DX005 (ip), vehicle: Klucel (hydroxypropylcellulose) (HPC)",101 % of control and 87 % of control
Cc1c([N+](=O)[O-])c(=O)[nH]n1C,T/C,[7],96 % of control
same,T/C,[8],88 % of control
same,T/C,[9],89 % of control
NC(=S)N=Nc1c(O)n(CCCO)c2ccccc12,T/C,[10],93 % of control
same,T/C,[11],100 % of control
CC(CC(=O)c1ccccc1)=NCCCCCN=C(C)CC(=O)c1ccccc1,T/C,[7],100 % of control
same,T/C,[8],102 % of control
same,T/C,[9],100 % of control
N#Cc1cc([N+](=O)[O-])c(Cl)c([N+](=O)[O-])c1Cl,T/C,"dose: 3.13 mg/kg/injection, schedule: Q04DX003 (ip), vehicle: saline with Tween-80",100 % of control
same,T/C,"dose: 6.25 mg/kg/injection, schedule: Q04DX003 (ip), vehicle: saline with Tween-80",100 % of control
same,T/C,"dose: 12.5 mg/kg/injection, schedule: Q04DX003 (ip), vehicle: saline with Tween-80",100 % of control
O=Cc1ccco1,T/C,[7],99 % of control
same,T/C,[8],101 % of control
same,T/C,[9],118 % of control
Oc1ccccc1C=NCCC[OH2+].Oc1ccccc1C=NCCC[OH2+].[Cu].[Cu],T/C,"dose: 25.0 mg/kg/injection, schedule: Q01DX005 (ip), vehicle: saline with Tween-80",103 % of control
same,T/C,[12],100 % of control and 102 % of control and 104 % of control
same,T/C,[13],109 % of control
O=C1N/C(=N/OCc2ccccc2)C(F)C(NOCc2ccccc2)N1 (stereo not drawn),T/C,"dose: 50.0 mg/kg/injection, schedule: Q01DX009 (ip), vehicle: Klucel (hydroxypropylcellulose) (HPC)",96 % of control
same,T/C,"dose: 100.0 mg/kg/injection, schedule: Q01DX009 (ip), vehicle: Klucel (hydroxypropylcellulose) (HPC)",101 % of control
same,T/C,"dose: 200.0 mg/kg/injection, schedule: Q01DX009 (ip), vehicle: Klucel (hydroxypropylcellulose) (HPC)",97 % of control
CCO/C=C1/N=C(Cc2ccccc2)OC1=O,T/C,"dose: 60.0 mg/kg/injection, schedule: Q01DX005 (ip), vehicle: saline + Tween-80 + alcohol",100 % of control
same,T/C,"dose: 120.0 mg/kg/injection, schedule: Q01DX005 (ip), vehicle: saline + Tween-80 + alcohol",94 % of control
CCCCc1c(O)c(N=NC(=N)N)c2ccccc2c1O,T/C,[12],100 % of control
same,T/C,[13],101 % of control
same,T/C,"dose: 200.0 mg/kg/injection, schedule: Q01DX005 (ip), vehicle: saline with Tween-80",99 % of control
CCn1c2ccc(C=O)cc2c2cc([N+](=O)[O-])ccc21,T/C,[4],92 % of control
same,T/C,[5],86 % of control
same,T/C,[6],86 % of control
S=C(S)C1=C(NCCCCCCNC2=C(C(=S)S)CCC2)CCC1,T/C,[1],100 % of control
same,T/C,[2],94 % of control
same,T/C,[3],100 % of control
O=C(NC(=S)Nc1ccccc1)c1ccccc1,T/C,"dose: 9.4 mg/kg/injection, schedule: Q01DX009 (ip), vehicle: Klucel (hydroxypropylcellulose) (HPC)",106 % of control
same,T/C,"dose: 18.75 mg/kg/injection, schedule: Q01DX009 (ip), vehicle: Klucel (hydroxypropylcellulose) (HPC)",101 % of control
same,T/C,"dose: 37.5 mg/kg/injection, schedule: Q01DX009 (ip), vehicle: Klucel (hydroxypropylcellulose) (HPC)",94 % of control
same,T/C,"dose: 75.0 mg/kg/injection, schedule: Q01DX009 (ip), vehicle: Klucel (hydroxypropylcellulose) (HPC)",96 % of control
O=C(O)CC(O)CCCCCO (stereo not drawn),T/C,[7],110 % of control
same,T/C,[8],110 % of control
same,T/C,"dose: 100.0 mg/kg/injection, schedule: Q04DX003 (ip), vehicle: saline",106 % of control
same,T/C,[9],100 % of control
same,T/C,"dose: 200.0 mg/kg/injection, schedule: Q04DX003 (ip), vehicle: saline",113 % of control
same,T/C,"dose: 400.0 mg/kg/injection, schedule: Q04DX003 (ip), vehicle: saline",100 % of control
C=C1C(=O)OC2C3[C@@]4(C)O[C@H]4[C@H]4O[C@@]34[C@](C)(O)CC(OC(C)=O)[C@@H]12 (stereo partly drawn),T/C,"dose: 1687.5 micrograms/kg/injection, schedule: Q01DX005 (ip), vehicle: Klucel (hydroxypropylcellulose) (HPC)",104 % of control
same,T/C,"dose: 3375.0 micrograms/kg/injection, schedule: Q01DX005 (ip), vehicle: Klucel (hydroxypropylcellulose) (HPC)",108 % of control
same,T/C,"dose: 6750.0 micrograms/kg/injection, schedule: Q01DX005 (ip), vehicle: Klucel (hydroxypropylcellulose) (HPC)",100 % of control
same,T/C,"dose: 13500.0 micrograms/kg/injection, schedule: Q01DX005 (ip), vehicle: Klucel (hydroxypropylcellulose) (HPC)",106 % of control
CC(N)P(=O)(O)O (stereo not drawn),T/C,"dose: 25.0 mg/kg/injection, schedule: Q01DX009 (ip), vehicle: saline",100 % of control
same,T/C,"dose: 50.0 mg/kg/injection, schedule: Q01DX009 (ip), vehicle: saline",115 % of control
same,T/C,"dose: 100.0 mg/kg/injection, schedule: Q01DX009 (ip), vehicle: saline",104 % of control and 87 % of control
same,T/C,"dose: 200.0 mg/kg/injection, schedule: Q01DX009 (ip), vehicle: saline",106 % of control and 86 % of control
Cc1cc(O)ccc1Nc1ccc(N(CCCl)CCCl)cc1,T/C,"dose: 200.0 mg/kg/injection, schedule: Q04DX003 (ip), vehicle: Klucel (hydroxypropylcellulose) (HPC)",166 % of control
same,T/C,"dose: 400.0 mg/kg/injection, schedule: Q04DX003 (ip), vehicle: Klucel (hydroxypropylcellulose) (HPC)",154 % of control
